# Several values for one entry are separate records, joined by “and”; a condition that tells them apart may be missing. Identical values can stand only once.
# Key:
# [1] = system: SARS-CoV-2 Washington strain 1 (USA_WA1/2020); assay type: cell-based
# [2] = system: SARS-CoV-2 Belgium/GHB-03021/2020 strain; test: microbe, parasite or virus in culture; assay type: cell-based; conditions: Severe acute respiratory syndrome coronavirus 2
# OCT1 = biological target: T1, OCT1 (Homo sapiens, UniProt O15245); test: Transporter inhibition using transfected HEK293 cells; assay type: in vitro ADME; conditions: IC50, [14C]Metformin (10 µM)
# T1 construct: expressed in transfected cells; host or cells: HEK293
# T1 sequence (O15245 1-554): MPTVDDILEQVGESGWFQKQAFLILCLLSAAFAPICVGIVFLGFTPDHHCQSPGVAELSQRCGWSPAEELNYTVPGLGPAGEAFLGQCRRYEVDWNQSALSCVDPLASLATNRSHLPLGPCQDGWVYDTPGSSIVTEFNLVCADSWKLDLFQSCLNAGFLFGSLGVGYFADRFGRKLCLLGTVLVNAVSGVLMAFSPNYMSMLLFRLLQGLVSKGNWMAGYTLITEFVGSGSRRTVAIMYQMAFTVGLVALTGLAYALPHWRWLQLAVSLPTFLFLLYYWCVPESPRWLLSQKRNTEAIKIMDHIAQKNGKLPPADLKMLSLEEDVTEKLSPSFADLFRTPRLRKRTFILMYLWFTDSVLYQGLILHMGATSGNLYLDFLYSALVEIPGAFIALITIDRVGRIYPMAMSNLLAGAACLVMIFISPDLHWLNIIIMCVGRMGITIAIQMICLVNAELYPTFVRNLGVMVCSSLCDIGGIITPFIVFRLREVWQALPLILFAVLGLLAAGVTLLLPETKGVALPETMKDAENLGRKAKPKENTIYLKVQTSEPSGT
# [3] = Plasma protein binding by equilibrium dialysis; conditions: for fraction unbound at 6 h, 5 uM / fraction unbound at 6 h: human, plasma
# [4] = Plasma protein binding by equilibrium dialysis; conditions: for fraction unbound at 6 h, 5 uM / fraction unbound at 6 h: plasma
# [5] = Plasma protein binding by equilibrium dialysis; conditions: for fraction unbound at 6 h, 5 uM / fraction unbound at 6 h: dog, plasma
# CYP2C19 = CYP2C19 (Homo sapiens, UniProt P33261); test: Reversible CYP inhibition in human liver microsomes
# MATE1 = biological target: T2, MATE1 (Homo sapiens, UniProt Q96FL8); test: Transporter inhibition using transfected HEK293 cells
# T2 sequence (Q96FL8 1-570): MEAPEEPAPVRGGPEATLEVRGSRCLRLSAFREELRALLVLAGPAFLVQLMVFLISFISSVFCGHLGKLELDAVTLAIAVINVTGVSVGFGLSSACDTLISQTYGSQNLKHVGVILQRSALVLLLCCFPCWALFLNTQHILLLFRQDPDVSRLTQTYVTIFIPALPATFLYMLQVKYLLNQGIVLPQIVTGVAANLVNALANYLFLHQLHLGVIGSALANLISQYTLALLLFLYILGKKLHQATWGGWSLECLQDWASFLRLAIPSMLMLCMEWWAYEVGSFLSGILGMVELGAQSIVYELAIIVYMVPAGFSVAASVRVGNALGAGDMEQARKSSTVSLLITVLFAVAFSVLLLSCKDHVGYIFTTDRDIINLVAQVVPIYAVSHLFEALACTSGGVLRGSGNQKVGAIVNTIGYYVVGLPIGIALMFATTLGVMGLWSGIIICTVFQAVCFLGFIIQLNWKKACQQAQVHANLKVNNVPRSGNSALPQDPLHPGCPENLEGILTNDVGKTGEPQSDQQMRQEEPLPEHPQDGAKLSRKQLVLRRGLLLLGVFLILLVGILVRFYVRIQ
# CYP2C19, sequence (P33261 whole entry): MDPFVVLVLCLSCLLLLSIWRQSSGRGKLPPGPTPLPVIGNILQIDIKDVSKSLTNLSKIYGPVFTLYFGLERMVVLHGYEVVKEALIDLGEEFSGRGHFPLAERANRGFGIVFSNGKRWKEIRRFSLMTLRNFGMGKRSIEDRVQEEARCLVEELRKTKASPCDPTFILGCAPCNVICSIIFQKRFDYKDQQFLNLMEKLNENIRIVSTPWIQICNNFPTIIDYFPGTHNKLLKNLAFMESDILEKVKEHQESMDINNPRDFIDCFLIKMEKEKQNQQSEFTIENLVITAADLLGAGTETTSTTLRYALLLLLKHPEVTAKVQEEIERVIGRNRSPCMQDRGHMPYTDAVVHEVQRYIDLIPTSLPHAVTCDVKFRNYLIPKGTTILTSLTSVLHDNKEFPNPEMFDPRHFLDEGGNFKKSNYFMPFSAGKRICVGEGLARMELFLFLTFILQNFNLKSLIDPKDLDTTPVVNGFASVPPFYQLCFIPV
structure (smiles),measurement,setting,value
COc1cccc2[nH]c(C(=O)N[C@@H](CC(C)C)C(=O)N[C@@H](C[C@@H]3CCNC3=O)C(=O)CO)cc12 [PF-00835231],hill coefficient (m),[1],3
same,EC90,[2],1.6 µM
same,IC50,OCT1,36.3 µM
same,IC50,"OCT1; human, HEK293 cells stably transfected with OCT1, pH 7.4, probe [14C]-metformin (10 µM)",> 20 µM
same,Individual fraction unbound,"[3]; human plasma, 5.0 uM, replicates Day 1-3",0.474 and 0.429 and 0.385 and 0.458 and 0.463 and 0.507 and 0.437 and 0.428 and 0.477 and 0.486
same,"fraction unbound at 6 h, 5 uM","[3]; pH 7.4, Fraction unbound, Geomean, human plasma, 5.0 uM, n 12",0.449
same,"fraction unbound at 6 h, 5 uM","[3]; pH 7.4, Individual fraction unbound, human plasma, 5.0 uM, replicates Day 1-3",0.423
same,fraction unbound at 6 h,"[3]; pH 7.4, Measured plasma fu / Human plasma fu, human plasma",0.449
same,fraction unbound at 6 h,"[3]; pH 7.4, Unbound fraction fu (%CV), human plasma",0.449
same,"fraction unbound at 6 h, 5 uM","[3]; pH 7.4, fraction unbound Geomean, human plasma, 5.0 uM, n=12",0.449
same,fraction unbound at 6 h,"[3]; pH 7.4, fu, fu,plasma, Simcyp input parameter (User), substrate",0.449
same,Individual fraction unbound,"[4]; Monkey Cynomologous plasma, 5.0 uM, replicates Day 1-3",0.429 and 0.445 and 0.467 and 0.489 and 0.396 and 0.428 and 0.46 and 0.501 and 0.390
same,"fraction unbound at 6 h, 5 uM","[4]; cynomolgus monkey, pH 7.4, Individual fraction unbound, Monkey Cynomologous plasma, 5.0 uM, replicates Day 1-3",0.44
same,"fraction unbound at 6 h, 5 uM","[4]; monkey, pH 7.4, Fraction unbound, Geomean, Monkey plasma, 5.0 uM, n 12",0.441
same,fraction unbound at 6 h,"[4]; monkey, pH 7.4, Plasma fu, Vdss input",0.441
same,fraction unbound at 6 h,"[4]; monkey, pH 7.4, Unbound fraction fu (%CV), monkey plasma",0.441
same,"fraction unbound at 6 h, 5 uM","[4]; monkey, pH 7.4, fraction unbound Geomean, monkey plasma, 5.0 uM, n=12",0.441
same,"fraction unbound at 6 h, 5 uM","[5]; Beagle, pH 7.4, Fraction unbound, Geomean, Dog plasma, 5.0 uM, n 12",0.416
same,"fraction unbound at 6 h, 5 uM","[5]; Beagle, pH 7.4, Individual fraction unbound, Dog Beagle plasma, 5.0 uM, replicates Day 1-3",0.401
same,Individual fraction unbound,"[5]; Dog Beagle plasma, 5.0 uM, replicates Day 1-3",0.386 and 0.435 and 0.45 and 0.406 and 0.488 and 0.451 and 0.403 and 0.342 and 0.444 and 0.382 and 0.419
same,fraction unbound at 6 h,"[5]; pH 7.4, Plasma fu, Vdss input",0.416
same,fraction unbound at 6 h,"[5]; pH 7.4, Unbound fraction fu (%CV), dog plasma",0.416
same,"fraction unbound at 6 h, 5 uM","[5]; pH 7.4, fraction unbound Geomean, dog plasma, 5.0 uM, n=12",0.416
same,Percent of Control Activity,"CYP2C19; CYP 2C19, 0.1 µM, Zero-Minute Preincubation, 0.1 µM",97.1% and 93.1%
same,Percent of Control Activity,"CYP2C19; CYP 2C19, 0.214 µM, 30-Minute Preincubation, 0.214 µM",94.5% and 97.7%
same,Percent of Control Activity,"CYP2C19; CYP 2C19, 0.214 µM, Zero-Minute Preincubation, 0.214 µM",96.9% and 95.6%
same,Percent of Control Activity,"CYP2C19; CYP 2C19, 0.979 µM, Zero-Minute Preincubation, 0.979 µM",91.0% and 93.6%
same,Percent of Control Activity,"CYP2C19; CYP 2C19, 2.09 µM, 30-Minute Preincubation, 2.09 µM",78.6% and 76.3%
same,Percent of Control Activity,"CYP2C19; CYP 2C19, 2.09 µM, Zero-Minute Preincubation, 2.09 µM",89.4% and 88.4%
same,Percent of Control Activity,"CYP2C19; CYP 2C19, 4.48 µM, 30-Minute Preincubation, 4.48 µM",87.7% and 90.1%
same,Percent of Control Activity,"CYP2C19; CYP 2C19, 4.48 µM, Zero-Minute Preincubation, 4.48 µM",88.9% and 87.5%
same,Percent of Control Activity,"CYP2C19; CYP 2C19, 20.5 µM, 30-Minute Preincubation, 20.5 µM",82.9% and 81.5%
same,Percent of Control Activity,"CYP2C19; CYP 2C19, 20.5 µM, Zero-Minute Preincubation, 20.5 µM",89.8% and 81.5%
same,Percent of Control Activity,"CYP2C19; CYP 2C19, 43.8 µM, 30-Minute Preincubation, 43.8 µM",68.7%
same,Percent of Control Activity,"CYP2C19; CYP 2C19, 43.8 µM, Zero-Minute Preincubation, 43.8 µM",83.4% and 80.9%
same,Percent of Control Activity,"CYP2C19; CYP 2C19, 93.5 µM, 30-Minute Preincubation, 93.5 µM",66.6% and 74.6%
same,Percent of Control Activity,"CYP2C19; CYP 2C19, 93.5 µM, Zero-Minute Preincubation, 93.5 µM",77.3%
same,Percent of Control Activity,"CYP2C19; CYP 2C19, 200 µM, 30-Minute Preincubation, 200 µM",62.1% and 65.9%
same,Percent of Control Activity,"CYP2C19; CYP 2C19, 200 µM, Zero-Minute Preincubation, 200 µM",65.6% and 68.4%
same,IC50,"CYP2C19; human, microsomes, pH 7.4",> 200 µM
same,activity at 0.1 µM,"CYP2C19; human, microsomes, pH 7.4, Percent of Control Activity, CYP 2C19, 0.1 µM, Zero-Minute Preincubation",95.2%
same,activity at 0.214 µM,"CYP2C19; human, microsomes, pH 7.4, Percent of Control Activity, CYP 2C19, 0.214 µM, 30-Minute Preincubation",99%
same,activity at 0.214 µM,"CYP2C19; human, microsomes, pH 7.4, Percent of Control Activity, CYP 2C19, 0.214 µM, Zero-Minute Preincubation",92.9%
same,activity at 0.979 µM,"CYP2C19; human, microsomes, pH 7.4, Percent of Control Activity, CYP 2C19, 0.979 µM, Zero-Minute Preincubation",81.3%
same,activity at 2.09 µM,"CYP2C19; human, microsomes, pH 7.4, Percent of Control Activity, CYP 2C19, 2.09 µM, 30-Minute Preincubation",79.9%
same,activity at 2.09 µM,"CYP2C19; human, microsomes, pH 7.4, Percent of Control Activity, CYP 2C19, 2.09 µM, Zero-Minute Preincubation",85.8%
same,activity at 4.48 µM,"CYP2C19; human, microsomes, pH 7.4, Percent of Control Activity, CYP 2C19, 4.48 µM, 30-Minute Preincubation",88.7%
same,activity at 4.48 µM,"CYP2C19; human, microsomes, pH 7.4, Percent of Control Activity, CYP 2C19, 4.48 µM, Zero-Minute Preincubation",83.6%
same,activity at 20.5 µM,"CYP2C19; human, microsomes, pH 7.4, Percent of Control Activity, CYP 2C19, 20.5 µM, 30-Minute Preincubation",83.9%
same,activity at 20.5 µM,"CYP2C19; human, microsomes, pH 7.4, Percent of Control Activity, CYP 2C19, 20.5 µM, Zero-Minute Preincubation",86.2%
same,activity at 43.8 µM,"CYP2C19; human, microsomes, pH 7.4, Percent of Control Activity, CYP 2C19, 43.8 µM, 30-Minute Preincubation",81.3%
same,activity at 43.8 µM,"CYP2C19; human, microsomes, pH 7.4, Percent of Control Activity, CYP 2C19, 43.8 µM, Zero-Minute Preincubation",85%
same,activity at 93.5 µM,"CYP2C19; human, microsomes, pH 7.4, Percent of Control Activity, CYP 2C19, 93.5 µM, 30-Minute Preincubation",74.5%
same,activity at 93.5 µM,"CYP2C19; human, microsomes, pH 7.4, Percent of Control Activity, CYP 2C19, 93.5 µM, Zero-Minute Preincubation",76.8%
same,activity at 200 µM,"CYP2C19; human, microsomes, pH 7.4, Percent of Control Activity, CYP 2C19, 200 µM, 30-Minute Preincubation",64.9%
same,activity at 200 µM,"CYP2C19; human, microsomes, pH 7.4, Percent of Control Activity, CYP 2C19, 200 µM, Zero-Minute Preincubation",69.2%
same,IC50,"MATE1; IC50, [14C]Metformin (20 µM)",175 µM
same,IC50,"MATE1; human, pH 7.4, IC50, [14C]Metformin (20 µM)",> 20 µM
